Values quoted from earlier work as cited in US20240000793A1, “OPHTHALMIC COMPOSITION CONTAINING LEVOFLOXACIN AND KETOROLAC, METHOD FOR THE PREPARATION AND USE THEREOF” (NTC S.R.L., priority 2020, published 2024).

How the values were obtained:
[1] = versus pH
[2] = recent studies

SMILES	Solubility profile [1]	Time in the eye at levels above the minimum inhibitory concentration (MIC) [2]
O=C(c1ccccc1)c1ccc2n1CCC2C(=O)O (centres unmarked) [Ketorolac tromethamine]	pH dependent trend, significantly increasing at pH value>6.0	
C[C@H]1COc2c(N3CCN(C)CC3)c(F)cc3c(=O)c(C(=O)O)cn1c23 [Levofloxacin]		more than six hours
